Source: patent US4798843A, “2-mercaproimidazole dopamine-β-hydroxylase inhibitors” (SmithKline Beckman Corporation, priority 1987, dated 1989)
Each block holds one compound with its values, some of them ahead of it.

Tests used:
[1] = target: T1, DBH (Homo sapiens, UniProt P09172); conditions: cited from earlier work
T1 sequence (P09172 1-617): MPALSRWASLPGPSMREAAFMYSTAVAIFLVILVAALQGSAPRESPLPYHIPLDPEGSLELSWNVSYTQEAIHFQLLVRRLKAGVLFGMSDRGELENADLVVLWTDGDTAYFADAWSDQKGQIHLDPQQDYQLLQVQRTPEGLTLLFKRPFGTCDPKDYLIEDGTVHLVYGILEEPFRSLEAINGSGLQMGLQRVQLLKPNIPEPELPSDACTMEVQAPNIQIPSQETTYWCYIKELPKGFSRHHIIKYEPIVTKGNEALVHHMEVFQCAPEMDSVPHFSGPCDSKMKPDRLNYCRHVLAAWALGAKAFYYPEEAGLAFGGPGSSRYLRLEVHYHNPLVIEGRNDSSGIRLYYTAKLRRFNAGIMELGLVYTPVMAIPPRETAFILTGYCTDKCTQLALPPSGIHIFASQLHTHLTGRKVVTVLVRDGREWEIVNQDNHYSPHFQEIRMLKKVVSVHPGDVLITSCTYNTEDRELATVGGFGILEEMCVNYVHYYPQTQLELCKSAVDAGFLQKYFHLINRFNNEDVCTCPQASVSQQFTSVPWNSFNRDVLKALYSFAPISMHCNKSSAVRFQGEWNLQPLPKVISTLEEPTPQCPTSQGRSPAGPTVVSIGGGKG

[2] = target: T2, DBH (Bos taurus, UniProt P15101); experiment: in vitro DBH inhibition, conversion of tyramine to octopamine in the presence of DBH (spectrophotometric at 330 nm); format: biochemical; conditions: for IC50: molar concentration of compound at which DBH activity was halved; for DBH inhibition: @ 10^-4 (molar concentration)
T2 sequence (P15101 1-610): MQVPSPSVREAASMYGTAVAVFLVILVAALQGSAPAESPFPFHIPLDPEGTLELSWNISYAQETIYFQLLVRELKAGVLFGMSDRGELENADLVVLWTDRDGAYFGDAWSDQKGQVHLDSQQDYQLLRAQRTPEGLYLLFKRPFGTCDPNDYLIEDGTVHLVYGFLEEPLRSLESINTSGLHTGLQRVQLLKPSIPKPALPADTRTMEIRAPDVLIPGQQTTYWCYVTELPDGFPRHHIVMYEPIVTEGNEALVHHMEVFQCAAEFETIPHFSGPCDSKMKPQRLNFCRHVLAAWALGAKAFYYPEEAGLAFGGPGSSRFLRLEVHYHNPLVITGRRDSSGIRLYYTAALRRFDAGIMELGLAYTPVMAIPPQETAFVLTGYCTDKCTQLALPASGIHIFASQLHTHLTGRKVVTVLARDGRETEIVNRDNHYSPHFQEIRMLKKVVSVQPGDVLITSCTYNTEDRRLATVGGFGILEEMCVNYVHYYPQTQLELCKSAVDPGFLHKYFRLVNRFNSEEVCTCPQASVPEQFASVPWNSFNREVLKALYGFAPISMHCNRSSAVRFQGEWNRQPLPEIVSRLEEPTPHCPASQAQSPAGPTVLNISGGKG
Description: Listed in Table I are Formula II compounds that were tested for in vitro DBH inhibition by a standard procedure for assaying conversion of tyramine to octopamine in the presence of DBH. J. J. Pisano, et al., Biochim. Biophys. Acta, 43, 566-568 (1960). Octopamine was assayed following sodium periodate oxidation to p-hydroxybenzaldehyde by measuring spectrophotometric absorbance at 330 nm. In Table I, inhibition is given in molar concentration of compound at which DBH activity was halved (IC50). Fusaric acid, by this test has an IC50 of 8×10^-7 M.

[3] = mean arterial blood pressure in spontaneously hypertensive rats; format: in vivo; conditions: 50 mg/kg intraperitoneally
Description: Further, spontaneously hypertensive rats were treated with 5-benzyl-2-mercaptoimidazole at a dose of 50 mg/kg intraperitoneally, and mean arterial blood pressure was monitored for 260 minutes using indwelling cannulae in the tail arteries. […] The maximal blood pressure reduction was approximately 25 mmHg.

[4] = Ehrreich et al.; cited from earlier work
[5] = Teresawa et al.; cited from earlier work

Compound: O=C(O)c1ccc(CCCCCl)cn1 [5 (4 chlorobutyl) picolinic acid]
DBH inhibition (in words) [1]: inhibit DBH

Compound: Oc1ccc(CCc2cnc(S)[nH]2)cc1 [5-(2-(4-Hydroxyphenyl)ethyl)-2-mercaptoimidazole]
IC50 [2]: 400 µM

Compound: COc1ccc(CCc2cnc(S)[nH]2)cc1 [5-(2-(4-Methoxyphenyl)ethyl)-2-mercaptoimidazole]
DBH inhibition [2]: 8.4%

Compound: O=C(O)c1ccc(CCC(Br)CBr)cn1 (centres unmarked) [5-(3,4-dibromobutyl)picolinic acid]
DBH inhibition (in words) [1]: DBH inhibitors

Compound: Sc1ncc(-c2ccc(Cl)cc2)[nH]1 [5-(4-Chlorophenyl)-2-mercaptoimidazole]
IC50 [2]: 100 µM

Compound: COc1ccc(Cc2cnc(S)[nH]2)cc1 [5-(4-Methoxybenzyl)-2-mercaptoimidazole]
DBH inhibition [2]: 36%

Compound: COc1ccc(-c2cnc(S)[nH]2)cc1 [5-(4-Methoxyphenyl)-2-mercaptoimidazole]
DBH inhibition [2]: 38%

Compound: CN(C)C(=S)SCc1ccc(C(=O)O)nc1 [5-(dimethyldithiocarbamoylmethyl)picolinic acid]
DBH inhibition (in words) [1]: DBH inhibitors

Compound: Sc1nc(-c2ccccc2)c[nH]1 [5-Phenyl-2-mercaptoimidazole]
IC50 [2]: 5500 µM

Compound: Sc1ncc(Cc2ccccc2)[nH]1 [5-benzyl-2-mercaptoimidazole]
time to significant blood pressure reductions vs vehicle-treated controls ([3]; indwelling cannulae in tail arteries): ≤ 30 min | maximal blood pressure reduction ([3]; monitored for 260 minutes): approximately 25 mmHg | time of lowest blood pressure ([3]; monitored for 260 minutes): exhibited their lowest blood pressures when monitoring was discontinued

Compound: NOCc1ccccc1 [Benzyloxyamine]
DBH inhibition (in words) [1]: apparently act as competitive inhibitors

Compound: CCCCc1ccc(C(N)=O)nc1 [Bupicomide, 5-(n-butyl)picolinamine]
DBH inhibition (in words) [1]: DBH inhibitor | antihypertensive or vasodilator activity [4]: has antihypertensive activity

Compound: NCCc1ccc(O)c(O)c1 [DA, dopamine]
antihypertensive or vasodilator activity [4]: selective vasodilator activity at certain concentrations

Compound: CCCCc1ccc(C(=O)O)nc1 [Fusaric acid]
hepatotoxicity [5]: hepatotoxic

Compound: NNCc1ccccc1 [benzylhydrazine]
DBH inhibition (in words) [1]: apparently act as competitive inhibitors

Compound: phenylpicolinic acid
DBH inhibitory activity relative to fusaric acid ([1]; Runti et al.): twice the inhibitory activity of fusaric acid

Further lines, results first:

IC50 [2]: 17 µM
Compound: Sc1ncc(CCc2ccccc2)[nH]1 [5-(2-Phenylethyl)-2-mercaptoimidazole]

DBH inhibition [2]: 29%
Compound: Oc1ccc(CCCc2cnc(S)[nH]2)cc1 [5-(3-(4-Hydroxyphenyl)propyl)-2-mercaptoimidazole]

DBH inhibition [2]: 39%
Compound: COc1ccc(CCCc2cnc(S)[nH]2)cc1 [5-(3-(4-Methoxyphenyl)propyl)-2-mercaptoimidazole]

IC50 [2]: 10 µM
Compound: Sc1ncc(CCCc2ccccc2)[nH]1 [5-(3-Phenylpropyl)-2-mercaptoimidazole]

DBH inhibition [2]: 24%
Compound: Oc1ccc(CCCCc2cnc(S)[nH]2)cc1 [5-(4-(4-Hydroxyphenyl)butyl)-2-mercaptoimidazole]

IC50 [2]: 100 µM
Compound: COc1ccc(CCCCc2cnc(S)[nH]2)cc1 [5-(4-(4-Methoxyphenyl)butyl)-2-mercaptoimidazole]

IC50 [2]: 100 µM
Compound: Sc1ncc(CCCCc2ccccc2)[nH]1 [5-(4-Phenylbutyl)-2-mercaptoimidazole]
